From patent publication US11957687B2 (REGENERON PHARMACEUTICALS, INC., priority 2019, dated 2024)

The compounds below were run against HSD17B13 (Homo sapiens (Human), UniProt Q7Z5P4) (assay: HSD17B13 enzymatic inhibition assay (150 nM or 50 nM HSD17B13)). Settings: 50 nM HSD17B13; read-out: Inhibition of 50 nM of HSD17B13 IC50.
Assay type: biochemical

Chain of HSD17B13 (Q7Z5P4 other isoform, or with tags, fused parts or gaps): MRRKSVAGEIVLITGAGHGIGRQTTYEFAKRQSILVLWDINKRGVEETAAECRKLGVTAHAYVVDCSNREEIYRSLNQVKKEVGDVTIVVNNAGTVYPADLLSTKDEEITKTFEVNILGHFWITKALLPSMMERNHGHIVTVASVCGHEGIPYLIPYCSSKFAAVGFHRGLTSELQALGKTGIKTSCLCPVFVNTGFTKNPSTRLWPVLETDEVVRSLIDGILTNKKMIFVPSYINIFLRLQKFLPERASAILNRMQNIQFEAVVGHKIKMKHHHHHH

SMILES | IC50 [µM]
C=CCc1cc(C(=O)NC2c3ccc(C)cc3Oc3cccc(C)c32)c(=O)[nH]c1C(F)(F)F (stereo not drawn) [Compound 180, 5-allyl-N-(1,6-dimethyl-9H-xanthen-9-yl)-2-oxo-6-(trifluoromethyl)-1,2-dihydropyridine-3-carboxamide] | 0.16
CCCc1cc(C(=O)NC2c3ccc(C)cc3Oc3cccc(C)c32)c(=O)[nH]c1C(F)(F)F (stereo not drawn) [Compound 181, N-(1,6-dimethyl-9H-xanthen-9-yl)-2-oxo-5-propyl-6-(trifluoromethyl)-1,2-dihydropyridine-3-carboxamide] | 0.39
Cc1ccc2c(c1)Oc1cccc(C)c1C2NC(=O)c1cc(CCc2ccccc2)c(C(F)(F)F)[nH]c1=O (stereo not drawn) [Compound 184, N-(1,6-dimethyl-9H-xanthen-9-yl)-2-oxo-5-phenethyl-6-(trifluoromethyl)-1,2-dihydropyridine-3-carboxamide] | 0.15
Cc1ccc2c(c1)Oc1cccc(C)c1C2NC(=O)c1cc(CO)c(C(F)(F)F)[nH]c1=O (stereo not drawn) [Compound 185, N-(1,6-dimethyl-9H-xanthen-9-yl)-5-(hydroxymethyl)-2-oxo-6-(trifluoromethyl)-1,2-dihydropyridine-3-carboxamide] | 0.73
Cc1ccc2c(c1)Oc1cccc(C)c1C2NC(=O)c1cc(C2CCCCC2)c(C(F)(F)F)[nH]c1=O (stereo not drawn) [Compound 186, 5-cyclohexyl-N-(1,6-dimethyl-9H-xanthen-9-yl)-2-oxo-6-(trifluoromethyl)-1,2-dihydropyridine-3-carboxamide] | 1.83
Cc1ccc2c(c1)Oc1cccc(C)c1C2NC(=O)c1cc(C2=CCCCC2)c(C(F)(F)F)[nH]c1=O (stereo not drawn) [Compound 187, 5-(cyclohex-1-en-1-yl)-N-(1,6-dimethyl-9H-xanthen-9-yl)-2-oxo-6-(trifluoromethyl)-1,2-dihydropyridine-3-carboxamide] | 0.77
Cc1ccc2c(c1)Oc1cccc(C)c1C2NC(=O)c1cc(C2=CCOCC2)c(C(F)(F)F)[nH]c1=O (stereo not drawn) [Compound 188, 5-(3,6-dihydro-2H-pyran-4-yl)-N-(1,6-dimethyl-9H-xanthen-9-yl)-2-oxo-6-(trifluoromethyl)-1,2-dihydropyridine-3-carboxamide] | 0.28
Cc1ccc2c(c1)Oc1cc(C)ccc1C2NC(=O)c1cc(Br)c(C(F)(F)F)[nH]c1=O [Compound 189, 5-bromo-N-(3,6-dimethyl-9H-xanthen-9-yl)-2-oxo-6-(trifluoromethyl)-1,2-dihydropyridine-3-carboxamide] | 0.07
O=C(NC1c2ccc(Cl)cc2Oc2cccc(Cl)c21)c1cnc(C(F)(F)F)[nH]c1=O (stereo not drawn) [Compound 191, N-(1,6-dichloro-9H-xanthen-9-yl)-6-oxo-2-(trifluoromethyl)-1,6-dihydropyrimidine-5-carboxamide] | 0.87
O=C(NC1c2ccc(Cl)cc2Oc2cc(Cl)ccc21)c1cnc(C(F)(F)F)[nH]c1=O [Compound 192, N-(3,6-dichloro-9H-xanthen-9-yl)-6-oxo-2-(trifluoromethyl)-1,6-dihydropyrimidine-5-carboxamide] | 0.23
Cc1ccc2c(c1)Oc1cccc(C)c1C2NC(=O)c1cnc(C(F)(F)F)[nH]c1=O (stereo not drawn) [Compound 193, N-(1,6-dimethyl-9H-xanthen-9-yl)-6-oxo-2-(trifluoromethyl)-1,6-dihydropyrimidine-5-carboxamide] | 1.02
Cc1cc(C(F)(F)F)[nH]c(=O)c1C(=O)NC1c2ccccc2Oc2ccccc21 [Compound 195, 4-methyl-2-oxo-6-(trifluoromethyl)-N-(9H-xanthen-9-yl)-1,2-dihydropyridine-3-carboxamide] | 3.31
Cc1cc(C(F)(F)F)[nH]c(=O)c1C(=O)NC1c2ccccc2Oc2cc(Cl)ccc21 (stereo not drawn) [Compound 196, N-(3-chloro-9H-xanthen-9-yl)-4-methyl-2-oxo-6-(trifluoromethyl)-1,2-dihydropyridine-3-carboxamide] | 0.63
COc1ccc2c(c1)Oc1ccccc1C2NC(=O)c1ccc(C(F)(F)F)[nH]c1=O (stereo not drawn) [Compound 197, N-(3-methoxy-9H-xanthen-9-yl)-2-oxo-6-(trifluoromethyl)-1,2-dihydropyridine-3-carboxamide] | 1.13
Cc1ccc2c(c1)Oc1cccc(C)c1C2NC(=O)c1c(C)cc(C(F)(F)F)[nH]c1=O (stereo not drawn) [Compound 199, N-(1,6-dimethyl-9H-xanthen-9-yl)-4-methyl-2-oxo-6-(trifluoromethyl)-1,2-dihydropyridine-3-carboxamide] | 5.15
Cc1cc(C(F)(F)F)[nH]c(=O)c1C(=O)NC1c2ccc(Cl)cc2Oc2cccc(Cl)c21 (stereo not drawn) [Compound 200, N-(1,6-dichloro-9H-xanthen-9-yl)-4-methyl-2-oxo-6-(trifluoromethyl)-1,2-dihydropyridine-3-carboxamide] | > 10
CCc1cc(C(F)(F)F)[nH]c(=O)c1C(=O)NC1c2ccc(C)cc2Oc2cc(C)ccc21 [Compound 201, N-(3,6-dimethyl-9H-xanthen-9-yl)-4-ethyl-2-oxo-6-(trifluoromethyl)-1,2-dihydropyridine-3-carboxamide] | 0.43
Cc1ccc2c(c1)Oc1cc(C)ccc1C2NC(=O)c1c(C)cc(C(F)(F)F)[nH]c1=O [Compound 202, N-(3,6-dimethyl-9H-xanthen-9-yl)-4-methyl-2-oxo-6-(trifluoromethyl)-1,2-dihydropyridine-3-carboxamide] | 0.35

SMILES | IC50 [µM]
Cc1cc(C(F)(F)F)[nH]c(=O)c1C(=O)NC1c2ccc(Cl)cc2Oc2cc(Cl)ccc21 [Compound 203, N-(3,6-dichloro-9H-xanthen-9-yl)-4-methyl-2-oxo-6-(trifluoromethyl)-1,2-dihydropyridine-3-carboxamide] | 1.05
CCc1cc(C(F)(F)F)[nH]c(=O)c1C(=O)NC1c2ccc(C)cc2Oc2cccc(C)c21 (stereo not drawn) [Compound 204, N-(1,6-dimethyl-9H-xanthen-9-yl)-4-ethyl-2-oxo-6-(trifluoromethyl)-1,2-dihydropyridine-3-carboxamide] | > 10
CCc1cc(C(F)(F)F)[nH]c(=O)c1C(=O)NC1c2ccc(Cl)cc2Oc2cccc(Cl)c21 (stereo not drawn) [Compound 205, N-(1,6-dichloro-9H-xanthen-9-yl)-4-ethyl-2-oxo-6-(trifluoromethyl)-1,2-dihydropyridine-3-carboxamide] | > 10
CCc1cc(C(F)(F)F)[nH]c(=O)c1C(=O)NC1c2ccc(Cl)cc2Oc2cc(Cl)ccc21 [Compound 206, N-(3,6-dichloro-9H-xanthen-9-yl)-4-ethyl-2-oxo-6-(trifluoromethyl)-1,2-dihydropyridine-3-carboxamide] | 0.29
CCCc1cc(C(F)(F)F)[nH]c(=O)c1C(=O)NC1c2ccc(C)cc2Oc2cc(C)ccc21 [Compound 207, N-(3,6-dimethyl-9H-xanthen-9-yl)-2-oxo-4-propyl-6-(trifluoromethyl)-1,2-dihydropyridine-3-carboxamide] | 0.18
CCCc1cc(C(F)(F)F)[nH]c(=O)c1C(=O)NC1c2ccc(C)cc2Oc2cccc(C)c21 (stereo not drawn) [Compound 208, N-(1,6-dimethyl-9H-xanthen-9-yl)-2-oxo-4-propyl-6-(trifluoromethyl)-1,2-dihydropyridine-3-carboxamide] | > 10
CCCc1cc(C(F)(F)F)[nH]c(=O)c1C(=O)NC1c2ccc(Cl)cc2Oc2cccc(Cl)c21 (stereo not drawn) [Compound 209, N-(1,6-dichloro-9H-xanthen-9-yl)-2-oxo-4-propyl-6-(trifluoromethyl)-1,2-dihydropyridine-3-carboxamide] | 3.44
CCCc1cc(C(F)(F)F)[nH]c(=O)c1C(=O)NC1c2ccc(Cl)cc2Oc2cc(Cl)ccc21 [Compound 210, N-(3,6-dichloro-9H-xanthen-9-yl)-2-oxo-4-propyl-6-(trifluoromethyl)-1,2-dihydropyridine-3-carboxamide] | 0.93
Cc1cc(C(=O)NC2c3ccc(Cl)cc3Oc3cccc(Cl)c32)c(=O)[nH]c1C(F)(F)F (stereo not drawn) [Compound 211, N-(1,6-dichloro-9H-xanthen-9-yl)-5-methyl-2-oxo-6-(trifluoromethyl)-1,2-dihydropyridine-3-carboxamide] | 0.87
CCc1ccc(C(=O)NC2c3ccccc3-c3ccccc32)c(=O)[nH]1 [Compound 212, 6-ethyl-N-(9H-fluoren-9-yl)-2-oxo-1,2-dihydropyridine-3-carboxamide] | > 10
Cc1cc(C(F)(F)F)[nH]c(=O)c1C(=O)NC1c2ccccc2-c2ccccc21 [Compound 213, N-(9H-fluoren-9-yl)-4-methyl-2-oxo-6-(trifluoromethyl)-1,2-dihydropyridine-3-carboxamide] | 2.24
Cc1c(C(F)(F)F)[nH]c(=O)c(C(=O)NC2c3ccccc3-c3ccccc32)c1C [Compound 214, N-(9H-fluoren-9-yl)-4,5-dimethyl-2-oxo-6-(trifluoromethyl)-1,2-dihydropyridine-3-carboxamide] | > 10
O=C(NCc1ccc(Cl)cc1Oc1cccc(Cl)c1)c1ccc(C(F)(F)F)[nH]c1=O [Compound 216, N-(4-chloro-2-(3-chlorophenoxy)benzyl)-2-oxo-6-(trifluoromethyl)-1,2-dihydropyridine-3-carboxamide] | 3.19
O=C(NCC1c2ccccc2-c2ccccc21)c1ccc(C(F)(F)F)[nH]c1=O [Compound 217, N-((9H-fluoren-9-yl)methyl)-2-oxo-6-(trifluoromethyl)-1,2-dihydropyridine-3-carboxamide] | 8.31
Cc1ccc(C(C)NC(=O)c2ccc(C(F)(F)F)[nH]c2=O)cc1 (stereo not drawn) [Compound 218] | 9.55
O=C(NC(c1ccc(Cl)cc1)c1ccncn1)c1ccc(C(F)(F)F)[nH]c1=O (stereo not drawn) [Compound 219, N-((4-chlorophenyl)(pyrimidin-4-yl)methyl)-2-oxo-6-(trifluoromethyl)-1,2-dihydropyridine-3-carboxamide] | > 10
O=C(NC(c1ccc(Cl)cc1)c1cncnc1)c1ccc(C(F)(F)F)[nH]c1=O (stereo not drawn) [Compound 220, N-((4-chlorophenyl)(pyrimidin-5-yl)methyl)-2-oxo-6-(trifluoromethyl)-1,2-dihydropyridine-3-carboxamide] | > 10
O=C(NC(c1ccccc1)c1cccc(=O)[nH]1)c1ccc(C(F)(F)F)[nH]c1=O (stereo not drawn) [Compound 221, 2-oxo-N-((6-oxo-1,6-dihydropyridin-2-yl)(phenyl)methyl)-6-(trifluoromethyl)-1,2-dihydropyridine-3-carboxamide] | 6.4
